Assay type in all cases: cell-based
One assay relates to COLO 205. Briefly: Growth inhibition of human tumor cell line COLO 205. The note with it: COLO 205 colon carcinoma. An excerpt:
(§1) FIG. 1 is a representation of the IC50 values of the growth inhibition when using the compounds E288, E289 and E499 on the human tumor cell lines COLO 205 and NCI-H460.
(§2) Further in-vitro results of the compounds according to the invention E288 (6-chloro-2-piperazino-4,7-dithiazolidino-pteridine) and E289 (6-methoxy-2-piperazino-4,7-dithiazolidino-pteridine) are summarized in the following in comparison to E499 (6-chloro-2-piperazino-4,7-dipyrrolidino-pteridine) (all IC50 figures are described in [μM]).
(§3) This includes the human cell lines A431 ([…]), OVCAR-3 (ovarian carcinoma), BT-549 and MCF-7 (mammary carcinoma), SK-MEL-28 and SK-MEL-5 (melanoma), SW 620 and HCT-15 (colon), A549 (lung carcinoma) as well as the glioblastoma cell line C6 of the rat.

Another assay relates to NCI-H460. Put plainly: Growth inhibition of human tumor cell line NCI-H460. The following applies: NCI-H460 bronchial carcinoma.
Description: as §1, §2, §3

Another assay concerns human cell line LXFL529L. Put plainly: Proliferation assay (sulforhodamin B assay), growth inhibition of tumor cells. The note with it: LXFL 529L. As to the method:
The inhibition of the growth of tumor cells due to the compounds according to the invention was determined on the human cell line LXFL529L. As a proliferation assay the sulforhodamin B assay as described by Skehan et al. (J. Natl. Cancer Inst. 82:1107-1112 (1990)) was used.

A word on the IC50: it is the concentration needed to halve the response being measured. Consider `Clc1nc2c(N3CCCC3)nc(N3CCNCC3)nc2nc1N1CCCC1` [E499, 6-Chloro-2-Piperazino-4,7-Dipyrrolidino-Pteridine], for which the IC50 in the assay with COLO 205 (Homo sapiens) came to 9.75 µM; in the assay on NCI-H460 (Homo sapiens) it was 31.6 µM.
Take `Clc1nc2c(N3CCSC3)nc(N3CCNCC3)nc2nc1N1CCSC1` [E288, 6-Chloro-2-Piperazino-4,7-Dithiazolidino-Pteridine]: the half-inhibitory concentration (IC50) in the assay with COLO 205 was determined as 6.19 µM; in the assay with NCI-H460, 18.2 µM.
For `COc1nc2c(N3CCSC3)nc(N3CCNCC3)nc2nc1N1CCSC1` [E289, 6-Methoxy-2-Piperazino-4,7-Dithiazolidino-Pteridine], the values for the IC50 with COLO 205 and in the assay with NCI-H460 were 9.64 µM and 13.9 µM, respectively.
Regarding `COc1nc2c(N3CCCC3)nc(N3CCNCC3)nc2nc1N1CCCC1` [E 293, 6-Methoxy-2-Piperazino-4,7-Dipyrrolidino-Pteridine], the IC50 with human cell line LXFL529L was determined as 3.4 ± 1 µM.
With `CSc1nc2c(N3CCCC3)nc(N3CCNCC3)nc2nc1N1CCCC1` [E 294, 6-Methylthio-2-Piperazino-4,7-Dipyrrolidino-Pteridine], the midpoint of inhibition with human cell line LXFL529L, the IC50, lay at 3 ± 0.3 µM.

The values above are taken from patent US20050054653A1, “Pteridine derivatives, method of producing them and their application” (Faustus Forschungs Cie. Translational Cancer Research GmbH, priority 2002, published 2005).
